Measurements: patent US5783700A, “Quinolic acid derivatives” (priority 1997, dated 1998)
“Also recorded” adds a separate entry of the source.

Assays:
[1] = Rotorod test for drug induced neurological deficit (neurotoxicity), ip; format: in vivo, male Carworth Farms no. 1 mice; conditions: for Rotorod: effective or [maximum ineffective] intraperitoneal dose: neurotoxicity, 30 min or 4 hr, 30, 100, 300 mg/kg, bracketed = maximum ineffective dose (given as >), unbracketed = effective (neurotoxic) dose (=)
Procedure: (§1) Biological Testing--Compounds were screened for anticonvulsant activity in male Carworth Farms no. 1 mice. The maximal electroshock (MES), subcutaneous Metrazol (pentylenetetrazole) (Met), and threshold tonic extension (TTE) tests were used to evaluate compounds for anticonvulsive activity. A rotorod protocol was used to determine neurotoxicity. Solutions for injection were prepared in 30% polyethylene glycol 400. Except for the TTE tests, animals were dosed ip at two different time periods: either 30 min. or 4 hr prior to testing. At each time period, three groups of four mice were tested at the following dose levels: 30, 100, and 300 mg/kg. This treatment protocol was followed for MES, Met, and rotorod testing.
Animals were tested for drug induced neurological deficit using a rotorod. Either 30 min. or 4 hr after treatment, the animal was placed on a 1-inch diameter knurled plastic rod rotating at 6 rpm. Neurological deficit was defined as the failure of the animal to remain on the rod for 1 min.

[2] = target: T1, glycine binding site on the NMDA receptor (Rattus norvegicus, UniProt P35439); experiment: Inhibition of [^3 H]-5,7-dichlorokynurenic acid specific binding; format: rat (cerebral cortex membranes); conditions: for [^3 H]-5,7-dichlorokynurenic acid displacement: 10 uM; for remaining activity at 10 µM: 0.25 h, pH 7.4, 10 uM test compound, read-out: Inhibition of [^3 H]-5,7-Dichlorokynurenic Acid Binding, % of Control; for remaining activity at 10 µM / Inhibition of [^3 H]-5,7-Dichlorokynurenic Acid Binding, % of Control: 10 nM radioligand, pH 7.4, mean ± SEM of three determinations; for Inhibition of [^3 H]-5,7-Dichlorokynurenic Acid Binding, % of Control: 10 uM test compound, 15 min, 10 µM
T1 construct: Membranes were prepared from rat cerebral cortex; from tissue; host or cells: rat cerebral cortex, "buffy coat" membrane fragments
Procedure: Binding Studies--The procedure of Baron et al. (1991) was used to assay for the inhibition of specific binding at the glycine binding site on the NMDA receptor. The labeled ligand used in this assay was [^3 H]-5,7-dichlorokynurenic acid (15.8 Ci/mmol) from DuPont-New England Nuclear (Boston, Mass.). […] Inhibition of specific binding was determined for selected compounds at a concentration of 10 uM using "buffy coat" membrane fragments (Jones et al., 1989). Membranes were prepared from rat cerebral cortex and assays were conducted in 50 mM HEPES-KOH buffer (Sigma, St. Louis, Mo.) at pH 7.4. Membranes were incubated in a final volume of 1 mL containing 10 nM [^3 H]-5,7-dichlorokynurenic acid. Incubation was continued for 15 min. at 4° C. Nonspecific binding was determined in the presence of 1 mM glycine and subtracted. Binding was terminated by centrifugation at 48,000×g for 10 min. Each of the resultant pellets was washed rapidly with 1 mL ice water and solubilized with 1 mL of a tissue solubilizer (Solvable, DuPont NEN). The solubilized samples were each dissolved in 10 mL 3a70B Complete Counting Cocktail (RPI, Mount Prospect, Ill.). Membrane bound radioactivity was determined using a Beckman LS-5000TD liquid scintillation counter. This screening procedure was conducted in triplicate in three separate tests. Results are presented as percent of control (±SEM, standard error of the mean).

[3] = Overall in vivo activity (MES, Met, TTE, rotorod); design: species or system male Carworth Farms no. 1 mice; conditions: ip
Procedure: as §1
Maximal electroshock (MES) induced seizures were elicited with a 60 cycle alternating current of 50 mA intensity (five to seven times the intensity necessary to evoke minimal electroshock threshold seizures). Current was delivered via corneal electrodes for 0.2 sec. A drop of 0.9% saline was instilled in the eye prior to application of the electrodes. Abolition of the hindlimb tonic extension component of the seizure was defined as protection. […]
The threshold tonic extension (TTE) test is similar to the MES screen but uses a lower level of electrical current (Piredda et al., 1985). […] An ED50 value was determined from a log dose-response plot of the resulting data. […]

TTE seizure = experiment: Threshold tonic extension (TTE) test, ip; format: in vivo, male Carworth Farms no. 1 mice; conditions: for minimal effective dose at 100 mg/kg: ip 100 mg/kg, 1/4 to 4 hr post treatment, 12.5 mA, bracketed = maximum ineffective dose (given as >), unbracketed = effective dose (=), read-out: TTE: effective or [maximum ineffective] intraperitoneal dose
Procedure: as §1
The threshold tonic extension (TTE) test is similar to the MES screen but uses a lower level of electrical current (Piredda et al., 1985). The lower current makes the test more sensitive but less discriminate than the MES screen. Twenty mice were pretreated ip with 100 mg/kg of the test compound. At time intervals of 1/4, 1/2, 1, 2, and 4 hr post treatment, 4 mice were challenged with 12.5 mA of electrical current for 0.2 sec. via corneal electrodes. This current produces a TTE seizure in untreated animals. Protection was defined as an absence of seizures. Additional TTE testing was conducted on compound 10 to determine the ED50 value for the observed protective effect. In this case, 6 groups containing either 8 or 16 animals were injected ip and tested two hours following treatment. Each group received a specified dose ranging from 20-500 mg/kg. An ED50 value was determined from a log dose-response plot of the resulting data.

[4] = system: NMDA-associated PCP binding site; experiment: [^3 H]-TCP binding displacement; format: rat (cerebral cortex membranes)
Procedure: Compound 10 was also screened for activity at the NMDA-associated PCP binding site, and, additionally, for activity at the GABA-A neuroreceptor. To determine possible effects on PCP binding, N-(1-(2-thienyl)cyclohexyl)-3,4-[^3 H]-piperidine ("[^3 H]-TCP") binding was assayed using the technique of Johnson et al. (1988). TCP is the thienyl derivative of PCP. Binding of [^3 H]-TCP to the NMDA receptor complex can be modulated by glycine agonists and antagonists (Benavides et al., 1988). DuPont-New England Nuclear was the source for [^3 H]-TCP (44.5 Ci/mmol). Membranes were prepared as described above. Assays were conducted in 5 mM Tris-acetate (pH 7.4) buffer containing 10 uM L-glutamic acid and 3 uM glycine. […] Nonspecific binding was determined in the presence of 30 uM PCP and subtracted. Samples were incubated at 24° C. for 1 hr. Binding was terminated using a Brandel M-24C cell harvester employing rapid filtration through GF/C glass filters presoaked in 0.1%(v/v)polyethylenimine. Filters were washed rapidly with two 1 mL aliquots of ice-cold water. Samples were run in triplicate at six different drug concentrations ranging from 1 uM to 5 nM. The experiment was repeated with buffer containing 0.1 mM L-glu and no added glycine. Two separate assays were conducted for each experiment.

GABA-A neuroreceptor = experiment: [^3 H]-muscimol competition binding; format: rat (cerebral cortex membranes); conditions: 5 nM [^3 H]-muscimol, compound 10 uM to 10 nM
Procedure: Compound 10 was screened for activity at the GABA-A neuroreceptor complex using [^3 H]-muscimol (20.0 Ci/mmol), also from DuPont-New England Nuclear. The filtration method reported by Williams and Risley (1979) was used for this assay. Membranes were initially prepared as described previously and frozen at -20° C. in distilled water for 24 hr. After thawing, membranes were resuspended in 50 mM Tris-acetate buffer (pH 7.0) which contained 0.1% (v/v) saponin (Sigma). The tissue was centrifuged at 48,000×g for 20 min. and the resulting pellet was resuspended in 30 volumes of 50 mM Tris-acetate buffer (pH 7.0) containing 100 mM KCI. The tissue was again centrifuged at 48,000×g for 20 min. After decanting the supernatant, the pellet was covered with fresh KCI containing Tris-acetate buffer and frozen for 24 hr.
On the day of the assay, the tissue was thawed and resuspended in 30 volumes of 50 mM Trisacetate (pH 7.0) with 100 mM KCI and centrifuged at 48,000×g for 20 min. This washing procedure was repeated twice. The final pellet was resuspended in 32 mL buffer. Membranes were incubated in a final volume of 1 mL with 5 nM [^3 H]-muscimol at 4° C. for 30 min. Samples were run in triplicate employing six different concentrations of compound 10 ranging from 10 uM to 10 nM. The assay was performed in duplicate. Each sample, including controls, contained 1.0% dimethyl sulfoxide (DMSO) to insure solubilization of the test compound. Nonspecific binding was determined in the presence of 200 uM gamma-aminobutyric acid (GABA) and subtracted. Binding was terminated using a Brandel M-24C cell harvester employing rapid filtration through GF/C glass fiber filters presoaked in 0.1% (v/v) polyethylenimine. Filters were washed with 1 mL cold water. Radioactivity bound to the filters was determined by scintillation counting.

Structure (SMILES) | Rotorod: effective or [maximum ineffective] intraperitoneal dose [1] [mg/kg] | remaining activity at 10 µM [2] [%] | minimal effective dose at 100 mg/kg (TTE seizure; Mus musculus) [mg/kg] | Inhibition of [^3 H]-5,7-Dichlorokynurenic Acid Binding, % of Control [2] | further results
CCN(CC)C(=O)Nc1cc(C(=O)OC)nc2cc(Cl)cc(Cl)c12 [Compound 1] | > 300 | 58 ± 8 | – | – | [^3 H]-5,7-dichlorokynurenic acid displacement [2]: active; in vivo / CNS anticonvulsant activity [3]: no in vivo activity; also recorded: no CNS activity; also recorded: did not have any in vivo effects
CCOC(=O)c1cc(NC(=O)N(CC)CC)c2c(Cl)cc(Cl)cc2n1 [Compound 2] | > 300 | – | 100 | – | –
CCN(CC)C(=O)Nc1cc(C(=O)O)nc2cc(Cl)cc(Cl)c12 [Compound 3] | 300 | – | > 100 | – | neurotoxicity in rotorod test [1]: neurotoxic
CCOC(=O)c1cc(NC(=O)N(C)C)c2c(Cl)cc(Cl)cc2n1 [Compound 4] | > 300 | 57 ± 1 | > 100 | – | [^3 H]-5,7-dichlorokynurenic acid displacement [2]: active; in vivo / CNS anticonvulsant activity [3]: no in vivo activity; also recorded: no CNS activity; also recorded: did not have any in vivo effects
CCCCN(CCCC)C(=O)Nc1cc(C(=O)OCC)nc2cc(Cl)cc(Cl)c12 [Compound 6] | > 300 | 76 ± 6 | 100 | – | –
CCCCN(CCCC)C(=O)Nc1cc(C(=O)O)nc2cc(Cl)cc(Cl)c12 [Compound 7] | > 300 | 20 ± 11 | 100 | 20-30 % of Control | –
CCOC(=O)c1cc(NC(=O)N(c2ccccc2)c2ccccc2)c2c(Cl)cc(Cl)cc2n1 [Compound 8] | > 300 | 77 ± 7 | 100 | – | –
O=C(O)c1cc(NC(=O)N(c2ccccc2)c2ccccc2)c2c(Cl)cc(Cl)cc2n1 [Compound 9] | > 300 | 25 ± 5 | 100 | 20-30 % of Control | –
COC(=O)c1cc(NC(=O)N(c2ccccc2)c2ccccc2)c2c(Cl)cc(Cl)cc2n1 [Compound 10, 2-methyl carboxylate-5,7-dichloro-4-[[(diphenylamino)-carbonyl]amino]-quinoline] | > 300 | 42 ± 7 | 100 | 42 % of Control | ED50 (TTE seizure; Mus musculus, 2 h, ip, two hours following treatment, doses 20-500 mg/kg): 134 mg/kg; S.E. of slope of TTE dose-response (TTE seizure; log dose-response plot, ip): 0.44; slope of TTE dose-response (TTE seizure; log dose-response plot, ip): 1.9; effect on [^3 H]-TCP binding ([4]; 10 uM L-glutamic acid and 3 uM glycine, compound 1 uM to 5 nM): No significant effect; effect on [^3 H]-TCP binding ([4]; 10 uM L-glutamic acid and 3 uM glycine, compound 1 uM to 5 nM, listed as 2-methyl carboxylate-5,7-dichloro-4-[[(diphenylamino)-carbonyl]amino]-quinoline): No significant effect; effect on [^3 H]-TCP binding ([4]; L-glutamate, no added glycine, compound 5 uM to 10 nM): no significant effect; PCP activity at the NMDA receptor ([4]; summary statement): tested negative; effect on [^3 H]-muscimol binding (GABA-A) (GABA-A neuroreceptor): No significant difference from control; also recorded: no effect; also recorded: No significant effects were observed; effect on [^3 H]-muscimol binding (GABA-A) (GABA-A neuroreceptor; listed as 2-methyl carboxylate-5,7-dichloro4-[[(diphenylamino)-carbonyl]amino]-quinoline): tested negative; effect on [^3 H]-muscimol binding (GABA-A) (GABA-A neuroreceptor; listed as 2-methyl carboxylate-5,7-dichloro-4-[[(diphenylamino)-carbonyl]amino]-quinoline): No significant effects were observed
CCOC(=O)c1cc(NC(=O)N(c2ccccc2)c2cccc(OC)c2)c2c(Cl)cc(Cl)cc2n1 [Compound 11] | > 300 | – | 100 | – | TTE anticonvulsant activity (TTE seizure; ip, 100 mg/kg): active
